Holding throughout (assay): differential scanning fluorimetry (thermal shift)
Assay type in all cases: binding
On the technique in general: DSF heats the sample and reads unfolding from a dye or from intrinsic fluorescence.

For assay [1], the target named is T1, hsHARS (human histidyl-tRNA synthetase, HARS) (Homo sapiens, UniProt P12081, Y454S).
T1 construct: gene HARS1; hsHARS gene in pDest527, 6x-His tag, E. coli BL21 Codon Plus, Ni-NTA purified; dimeric protein
T1 sequence (P12081 1-509 Y454S): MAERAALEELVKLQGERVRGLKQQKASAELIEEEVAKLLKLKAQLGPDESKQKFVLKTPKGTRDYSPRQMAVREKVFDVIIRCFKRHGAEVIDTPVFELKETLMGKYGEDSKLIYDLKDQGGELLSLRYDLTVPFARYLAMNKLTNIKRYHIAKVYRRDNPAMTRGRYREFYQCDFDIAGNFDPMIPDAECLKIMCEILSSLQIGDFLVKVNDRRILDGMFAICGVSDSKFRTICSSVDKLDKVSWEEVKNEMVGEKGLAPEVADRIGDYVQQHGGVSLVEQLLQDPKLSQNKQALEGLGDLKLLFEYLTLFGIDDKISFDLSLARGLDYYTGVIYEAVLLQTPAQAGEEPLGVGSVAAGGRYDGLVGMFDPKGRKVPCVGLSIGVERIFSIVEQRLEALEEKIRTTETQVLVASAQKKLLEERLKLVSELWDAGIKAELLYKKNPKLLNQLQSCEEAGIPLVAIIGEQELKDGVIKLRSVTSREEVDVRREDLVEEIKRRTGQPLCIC
The conditions noted are these: 1 μM protein, apo mutant TM 50 ± 1.8 °C. The source says: (§1) differential scanning fluorimetry (thermal shift) on […]

Assay [2] has as its target T2, hsHARS (human histidyl-tRNA synthetase, HARS) (Homo sapiens, UniProt P12081, V155G).
T2 construct: gene HARS1; hsHARS gene in pDest527, 6x-His tag, E. coli BL21 Codon Plus, Ni-NTA purified; dimeric protein
T2 sequence (P12081 1-509 V155G): T1 sequence (P12081 1-509 Y454S) with V155G, S454Y
The conditions noted are these: 1 μM protein, apo mutant TM 59.8 ± 0.7 °C.
Description: as §1

Assay [3] deals with T3, hsHARS (human histidyl-tRNA synthetase, HARS) (Homo sapiens, UniProt P12081, V133F).
T3 construct: gene HARS1; hsHARS gene in pDest527, 6x-His tag, E. coli BL21 Codon Plus, Ni-NTA purified; dimeric protein
T3 sequence (P12081 1-509 V133F): T1 sequence (P12081 1-509 Y454S) with V133F, S454Y
The conditions noted are these: 500 μM ATP, 1 μM protein; apo mutant TM 52 ± 1.2 °C. From the text: differential scanning fluorimetry (thermal shift) on hsHARS (human histidyl-tRNA synthetase, HARS) | high ATP concentrations increase the thermal stability of HARS V133F to wild-type levels

Numbering of substitutions follows the chain as printed.

Consider `Nc1ncnc2c1ncn2[C@@H]1O[C@H](COP(=O)(O)OP(=O)(O)OP(=O)(O)O)[C@@H](O)[C@H]1O` [ATP], for which the TM entry in assay [1] (500 μM ATP) was “The addition of tRNA or ATP alone or in combination slightly increased stability”; in assay [2] (500 μM ATP), “all substrate supplementations restored wild-type like levels of protein stability”; in assay [3], 63 ± 1.9 °C.

Take `N[C@@H](Cc1cnc[nH]1)C(=O)O` [histidine]: the TM was 57.8 ± 0.8 °C in assay [1] (1 mM histidine) and “all substrate supplementations restored wild-type like levels of protein stability” in assay [2] (1 mM histidine).

For the origin of these results see PMC9941834, “Histidine supplementation can escalate or rescue HARS deficiency in a Charcot–Marie–Tooth disease model” (Human Molecular Genetics, 2022).
